Source: BigSolDB 2.1

O=C1CCC(c2ccccc2)=NN1
solubility (mole fraction) (in transcutol, 293.15 K): 0.425
solubility (mole fraction) (in transcutol, 298.15 K): 0.453
solubility (mole fraction) (in transcutol, 303.15 K): 0.478
solubility (mole fraction) (in transcutol, 308.15 K): 0.507
solubility (mole fraction) (in transcutol, 313.15 K): 0.527
solubility (mole fraction) (in water, 293.15 K): 7.45e-07
solubility (mole fraction) (in water, 298.15 K): 9.1e-07
solubility (mole fraction) (in water, 303.15 K): 1.09e-06
solubility (mole fraction) (in water, 308.15 K): 1.34e-06
solubility (mole fraction) (in water, 313.15 K): 1.64e-06
